Test results from patent US9260395B2, “Inhibitors of viral replication, their process of preparation and their therapeutical uses” (priority 2012, dated 2016).

These molecules were tested on NL4-3 strain of HIV-1 (assay: Cyto-protection (CellTiter-Glo viability) assay of MT4 cells infected with NL4-3 virus; inhibition of HIV replication). Conditions: Human immunodeficiency virus 1, NL43, 120 h; concentration leading to 50% of cyto-protection; MT4 cells infected with NL4-3 virus; 5 days incubation; CellTiter-Glo; read-out: EC50.
Format: cell-based
Method: Preparation of Virus stock of the NL4-3 strain of HIV-1 (Adachi et al, J Virol, 1986, 59(2):284-91).
The virus was prepared as described in Lopez et al (Lopez et al, Proc Natl Acad Sci USA., 2006, 103(40):14947-52, by transfecting 2×10^6 293 T cells (CRL-1573, ATCC) with following modifications: 6 μg of NL4-3 proviral DNA molecular clone were mixed with Fugene 6 transfection reagent from Roche, and used according to manufacturer's instructions. Forty eight hours later, transfected cell supernatants were harvested, filtered through 0.45-μm-pore-size filters, quantified for HIV-1 p24 antigen by using a Innotest HIV antigen mAb assay (Ingen) according to manufacturer's instructions, and used in infection experiments.
Serial dilutions of compounds to be tested were prepared in complete RPMI medium from 10 mM DMSO stock solutions, and I in 96 well Falcon 353072 Microtest[…]distributed in a volume of 20™ tissue culture plate, in order to get 0.5% DMSO final concentration in each well, after the addition of infected cells. Control wells contained also 0.5% DMSO final concentration but no compound.
MT4 cells (from the NIH AIDS Research and Reference Reagent Program) in RPMI complete medium were counted (10×10^6 cells per well in Falcon 353047 Multiwell™ 24 well) and infected for 2 hours at 37°, at a multiplicity of infection (moi) of 0.0001-0.00001. Cells were then centrifuged 3 min at 3000 rpm, and washed two times in 1 ml PBS to remove viruses that have not entered in cells. Infected cells were resuspended in complete RPMI at 1.25×10^6 cells/ml and 80 μl of infected cells were distributed in each well containing compound to be tested or control wells. The plates were then incubated at 37° for 5 days.
Assay used to measure the inhibition of HIV replication by the compounds (according to Gregg S. Jones et al., Antimicrobial Agents and Chemotherapy, 2009, 53 (3): 1194-1203).
After 5 days of incubation, microplates were equilibrated to room temperature for 30 mn and then 50 μl of CellTiter-Glo reagent (Promega Biosciences, Inc., Madison Wis., USA) were added to each well. Cell lysis was carried out at room temperature during 10 min, 150μl of lysates were transferred in Packard Optiplate 96 well, and luminescence was read on a Fluoroskan (Thermo Scientific).
The EC50, or effective concentration 50, is the concentration of compound leading to 50% of cyto-protection in a Cell-Titer-Glo® viability assay based on MT4 cells infected with NL4-3 virus (table 1).
In the case of `Cn1nc(-c2ccncc2)c(C2=CCC(C)(C)CC2)c1C(OC(C)(C)C)C(=O)O` (stereo not drawn) [Example 39, 2-(tert-butoxy)-2-[4-(4,4-dimethylcyclohex-1-en-1-yl)-1-methyl-3-(pyridin-4-yl)-1H-pyrazol-5-yl]acetic acid], the EC50 is reported as 5.7 µM. Work on `Cn1nc(C2=CCCCC2)c(-c2ccc3c(c2)CCCO3)c1C(OC(C)(C)C)C(=O)O` (stereo not drawn) [Example 13, 2-(tert-butoxy)-2-[3-(cyclohex-1-en-1-yl)-4-(3,4-dihydro-2H-1-benzopyran-6-yl)-1-methyl-1H-pyrazol-5-yl]acetic acid] yielded an EC50 of 0.17 µM. `Cn1nc(-c2cccs2)c(C2=CCC(C)(C)CC2)c1C(OC(C)(C)C)C(=O)O` (stereo not drawn) [Example 6, 2-(tert-butoxy)-2-[4-(4,4-dimethylcyclohex-1-en-1-yl)-1-methyl-3-(thiophen-2-yl)-1H-pyrazol-5-yl]acetic acid] was tested, and the EC50 was 0.47 µM. Molecule `C=C(C)c1nn(C)c(C(OC(C)(C)C)C(=O)O)c1-c1ccc2c(c1)CCCO2` (stereo not drawn) [Example 22, 2-(tert-butoxy)-2-[4-(3,4-dihydro-2H-1-benzopyran-6-yl)-1-methyl-3-(prop-1-en-2-yl)-1H-pyrazol-5-yl]acetic acid] has an EC50 of 8 µM. `Cn1nc(-c2cccs2)c(-c2ccc3c(c2)CCCO3)c1C(OC(C)(C)C)C(=O)O` (stereo not drawn) [Example 3, 2-(tert-butoxy)-2-[4-(3,4-dihydro-2H-1-benzopyran-6-yl)-1-methyl-3-(thiophen-2-yl)-1H-pyrazol-5-yl]acetic acid] gave an EC50 of 0.29 µM. In the case of `Cn1nc(-c2ccsc2)c(-c2ccc3c(c2)CCCO3)c1C(OC(C)(C)C)C(=O)O` (stereo not drawn) [Example 4, 2-(tert-butoxy)-2-[4-(3,4-dihydro-2H-1-benzopyran-6-yl)-1-methyl-3-(thiophen-3-yl)-1H-pyrazol-5-yl]acetic acid], the EC50 is reported as 0.28 µM. `Cn1nc(-c2csc3ccccc23)c(-c2ccc3c(c2)CCCO3)c1C(OC(C)(C)C)C(=O)O` (stereo not drawn) [Example 38, 2-[3-benzo[b]thiophen-3-yl-4-(3,4-dihydro-2H-1-benzopyran-6-yl)-1-methyl-1H-pyrazol-5-yl]-2-(tert-butoxy)acetic acid] showed an EC50 of 2.2 µM. For `Cn1nc(-c2cc3c(s2)CCC3)c(-c2ccc3c(c2)CCCO3)c1C(OC(C)(C)C)C(=O)O` (stereo not drawn) [Example 37, 2-(tert-butoxy)-2-(3-{4H,5H,6H-cyclopenta[b]thiophen-2-yl}-4-(3,4-dihydro-2H-1-benzopyran-6-yl)-1-methyl-1H-pyrazol-5-yl)acetic acid], the EC50 was 3.3 µM. With `Cn1nc(C2=CCCC2)c(-c2ccc3c(c2)CCCO3)c1C(OC(C)(C)C)C(=O)O` (stereo not drawn) [Example 12, 2-(tert-butoxy)-2-[3-(cyclopent-1-en-1-yl)-4-(3,4-dihydro-2H-1-benzopyran-6-yl)-1-methyl-1H-pyrazol-5-yl]acetic acid] the EC50 was 0.24 µM. `CCCc1nn(C)c(C(OC(C)(C)C)C(=O)O)c1-c1ccc2c(c1)CCCO2` (stereo not drawn) [Example 30, 2-(tert-butoxy)-2-[4-(3,4-dihydro-2H-1-benzopyran-6-yl)-1-methyl-3-propyl-1H-pyrazol-5-yl]acetic acid] was tested, and the EC50 was 32 µM. With `CC1C=C(c2nn(C)c(C(OC(C)(C)C)C(=O)O)c2-c2ccc3c(c2)CCCO3)CCC1` (stereo not drawn) [Example 17, 2-(tert-butoxy)-2-[4-(3,4-dihydro-2H-1-benzopyran-6-yl)-1-methyl-3-(3-methylcyclohex-1-en-1-yl)-1H-pyrazol-5-yl]acetic acid] the EC50 was 0.74 µM. Work on `CC1CC=C(c2nn(C)c(C(OC(C)(C)C)C(=O)O)c2-c2ccc3c(c2)CCCO3)CC1` (stereo not drawn) [Example 31, 2-(tert-butoxy)-2-[4-(3,4-dihydro-2H-1-benzopyran-6-yl)-1-methyl-3-(4-methylcyclohex-1-en-1-yl)-1H-pyrazol-5-yl]acetic acid] yielded an EC50 of 3.8 µM. `Cn1nc(C2CCCCC2)c(-c2ccc3c(c2)CCCO3)c1C(OC(C)(C)C)C(=O)O` (stereo not drawn) [Example 20, 2-(tert-butoxy)-2-[3-cyclohexyl-4-(3,4-dihydro-2H-1-benzopyran-6-yl)-1-methyl-1H-pyrazol-5-yl]acetic acid] was tested, and the EC50 was 1.4 µM. In the case of `Cc1c(-c2c(-c3cccs3)nn(C)c2C(OC(C)(C)C)C(=O)O)cc(F)c2c1CCCO2` (stereo not drawn) [Example 10, 2-(tert-butoxy)-2-[4-(8-fluoro-5-methyl-3,4-dihydro-2H-1-benzopyran-6-yl)-1-methyl-3-(thiophen-2-yl)-1H-pyrazol-5-yl]acetic acid], the EC50 is reported as 1.1 µM. With `Cn1nc(C2=CCCC2(C)C)c(-c2ccc3c(c2)CCCO3)c1C(OC(C)(C)C)C(=O)O` (stereo not drawn) [Example 32, 2-(tert-butoxy)-2-[4-(3,4-dihydro-2H-1-benzopyran-6-yl)-3-(5,5-dimethylcyclopent-1-en-1-yl)-1-methyl-1H-pyrazol-5-yl]acetic acid] the EC50 was 3.2 µM. Work on `Cn1nc(-c2ccccc2)c(C2=CCC(C)(C)CC2)c1C(OC(C)(C)C)C(=O)O` (stereo not drawn) [Example 1, 2-(tert-butoxy)-2-[4-(4,4-dimethylcyclohex-1-en-1-yl)-1-methyl-3-phenyl-1H-pyrazol-5-yl]acetic acid] yielded an EC50 of 0.48 µM. With `CC1CCC=C1c1nn(C)c(C(OC(C)(C)C)C(=O)O)c1-c1ccc2c(c1)CCCO2` (stereo not drawn) [Example 26, 2-(tert-butoxy)-2-[4-(3,4-dihydro-2H-1-benzopyran-6-yl)-1-methyl-3-(5-methylcyclopent-1-en-1-yl)-1H-pyrazol-5-yl]acetic acid] the EC50 was 0.63 µM. Molecule `Cn1nc(/C=C/C2CC2)c(-c2ccc3c(c2)CCCO3)c1C(OC(C)(C)C)C(=O)O` (stereo not drawn) [Example 27, 2-(tert-butoxy)-2-{3-[(E)-2-cyclopropylethenyl]-4-(3,4-dihydro-2H-1-benzopyran-6-yl)-1-methyl-1H-pyrazol-5-yl}acetic acid] has an EC50 of 5.3 µM. `CCCc1cc(-c2nn(C)c(C(OC(C)(C)C)C(=O)O)c2-c2ccc3c(c2)CCCO3)cs1` (stereo not drawn) [Example 11, 2-(tert-butoxy)-2-[4-(3,4-dihydro-2H-1-benzopyran-6-yl)-1-methyl-3-(5-propylthiophen-3-yl)-1H-pyrazol-5-yl]acetic acid] gave an EC50 of 0.83 µM. In the case of `C/C=C/c1nn(C)c(C(OC(C)(C)C)C(=O)O)c1-c1ccc2c(c1)CCCO2` (stereo not drawn) [Example 29, 2-(tert-butoxy)-2-[4-(3,4-dihydro-2H-1-benzopyran-6-yl)-1-methyl-3-[(1E)-prop-1-en-1-yl]-1H-pyrazol-5-yl]acetic acid], the EC50 is reported as 1.4 µM. With `Cn1nc(CC2CCCC2)c(-c2ccc3c(c2)CCCO3)c1C(OC(C)(C)C)C(=O)O` (stereo not drawn) [Example 21, 2-(tert-butoxy)-2-[3-(cyclopentylmethyl)-4-(3,4-dihydro-2H-1-benzopyran-6-yl)-1-methyl-1H-pyrazol-5-yl]acetic acid] the EC50 was 9.3 µM. `Cn1nc(-c2ccccc2)c(-c2ccc3c(c2)CCCO3)c1C(OC(C)(C)C)C(=O)O` (stereo not drawn) [Example 2, 2-(tert-butoxy)-2-[4-(3,4-dihydro-2H-1-benzopyran-6-yl)-1-methyl-3-phenyl-1H-pyrazol-5-yl]acetic acid] was tested, and the EC50 was 0.68 µM. `Cn1nc(-c2cccs2)c(-c2cc(F)c3c(c2)CCCO3)c1C(OC(C)(C)C)C(=O)O` (stereo not drawn) [Example 42, 2-(tert-butoxy)-2-[4-(8-fluoro-3,4-dihydro-2H-1-benzopyran-6-yl)-1-methyl-3-(thiophen-2-yl)-1H-pyrazol-5-yl]acetic acid] gave an EC50 of 1.8 µM. Molecule `Cn1nc(C2CCCC2)c(-c2ccc3c(c2)CCCO3)c1C(OC(C)(C)C)C(=O)O` (stereo not drawn) [Example 19, 2-(tert-butoxy)-2-[3-cyclopentyl-4-(3,4-dihydro-2H-1-benzopyran-6-yl)-1-methyl-1H-pyrazol-5-yl]acetic acid] has an EC50 of 3.9 µM. With `Cn1nc(-c2ccsc2)c(C2=CCC(C)(C)CC2)c1C(OC(C)(C)C)C(=O)O` (stereo not drawn) [Example 5, 2-(tert-butoxy)-2-[4-(4,4-dimethylcyclohex-1-en-1-yl)-1-methyl-3-(thiophen-3-yl)-1H-pyrazol-5-yl]acetic acid] the EC50 was 0.27 µM. For `CC(C)C1CC=C(c2c(-c3ccccc3)nn(C)c2C(OC(C)(C)C)C(=O)O)CC1` (stereo not drawn) [Example 41, 2-(tert-butoxy)-2-{1-methyl-3-phenyl-4-[4-(propan-2-yl)cyclohex-1-en-1-yl]-1H-pyrazol-5-yl}acetic acid], the EC50 was 6 µM.

Same assay, conditions: Human immunodeficiency virus 1, NL43, MT4, 120 h
In the case of `Cn1nc(C2=CC3CCC2C3)c(-c2ccc3c(c2)CCCO3)c1C(OC(C)(C)C)C(=O)O` (stereo not drawn) [Example 15, 2-(3-{bicyclo[2.2.1]hept-2-en-2-yl}-4-(3,4-dihydro-2H-1-benzopyran-6-yl)-1-methyl-1H-pyrazol-5-yl)-2-(tert-butoxy)acetic acid], the EC50 is reported as 0.55 µM.
